Test results taken from patent US7402674B2, “7-Phenylamino-4-quinolone-3-carboxylic acid derivatives, process for their preparation and their use as medicaments” (Sanofi-Aventis Deutschland GmbH,, priority 2004, dated 2008).

Target: T1, human glycogen phosphorylase a (Homo sapiens, UniProt P06737)
T1 sequence (P06737 1-847): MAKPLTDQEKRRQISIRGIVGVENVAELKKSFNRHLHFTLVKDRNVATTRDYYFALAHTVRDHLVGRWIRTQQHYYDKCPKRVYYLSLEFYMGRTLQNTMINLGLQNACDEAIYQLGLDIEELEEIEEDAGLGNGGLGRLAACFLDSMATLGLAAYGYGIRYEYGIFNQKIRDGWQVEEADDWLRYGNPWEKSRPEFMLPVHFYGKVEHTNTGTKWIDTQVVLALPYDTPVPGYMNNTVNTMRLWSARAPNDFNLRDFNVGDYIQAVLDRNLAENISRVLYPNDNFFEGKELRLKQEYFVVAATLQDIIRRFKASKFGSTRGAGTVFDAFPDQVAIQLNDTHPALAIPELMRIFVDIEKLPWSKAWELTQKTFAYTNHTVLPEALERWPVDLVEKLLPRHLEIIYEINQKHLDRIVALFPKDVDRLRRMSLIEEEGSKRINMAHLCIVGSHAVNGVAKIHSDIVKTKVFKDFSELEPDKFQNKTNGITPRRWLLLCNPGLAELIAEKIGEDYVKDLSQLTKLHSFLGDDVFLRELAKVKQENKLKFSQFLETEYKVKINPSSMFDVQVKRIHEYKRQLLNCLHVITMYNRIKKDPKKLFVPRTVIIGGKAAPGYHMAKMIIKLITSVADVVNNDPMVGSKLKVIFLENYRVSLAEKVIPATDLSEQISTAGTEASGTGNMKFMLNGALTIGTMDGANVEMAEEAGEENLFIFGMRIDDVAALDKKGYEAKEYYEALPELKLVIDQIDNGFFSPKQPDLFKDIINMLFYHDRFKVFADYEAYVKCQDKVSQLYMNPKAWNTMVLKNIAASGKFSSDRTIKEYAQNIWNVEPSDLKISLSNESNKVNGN
Experiment: Glycogen phosphorylase a activity assay
Type: biochemical
Details: 10 μM test substance; reverse direction (glycogen synthesis from glucose 1-phosphate, liberated inorganic phosphate)
Experimental: Glycogen Phosphorylase a Activity Assay
The effect of compounds on the activity of the active form of glycogen phosphorylase (GPa) was measured in the reverse direction by following the synthesis of glycogen from glucose 1-phosphate by determining the liberation of inorganic phosphate. All the reactions were carried out as duplicate determinations in microtiter plates with 96 wells (Half Area Plates, Costar No 3696), measuring the change in absorption owing to the formation of the reaction product at the wavelength specified hereinafter in a Multiskan Ascent Elisa Reader (Lab Systems, Finland).
In order to measure the GPa enzymic activity in the reverse direction, the general method of Engers et al. (Engers H D, Shechosky S, Madsen N B, Can J Biochem 1970 July; 48(7):746-754) was used to measure the conversion of glucose 1-phosphate into glycogen and inorganic phosphate, with the following modifications: human glycogen phosphorylase a (for example with 0.76 mg of protein/ml (Aventis Pharma Deutschland GmbH), dissolved in buffer solution E (25 mM β-glycerophosphate, pH 7.0, 1 mM EDTA and 1 mM dithiothreitol) was diluted with buffer T (50 mM Hepes, pH 7.0, 100 mM KCl, 2.5 mM EDTA, 2.5 mM MgCl2.6H2O) and addition of 5 mg/ml glycogen to a concentration of 10 μg of protein/ml. […] After incubation at 45° C. for 60 minutes, the absorption at 820 nm was measured. […]

Substance: 1-Ethyl-6-(4-ethylphenylamino)-7-methyl-4-oxo-1,4-dihydro-[1,8]naphthyridine-3-carboxylate [Example 1]
- % inhibition at 10 μM: 14%
